Where a name gives a salt, the structure may show the parent alone.
How the values were obtained:
GSK3β = GSK3β (Homo sapiens, UniProt P49841); assay: Inhibitory activity against GSK3β (33P-ATP phosphorylation of prephosphorylated GS1 peptide); format: biochemical; details: protocol 4: commercial GSK3beta (Millipore), 7.5 μM GS1 peptide, 10 μM ATP, 50 mM Hepes pH 7.2, 90 minutes at room temperature
Description: Four different protocols can be used. In a first protocol: 7.5 μM of prephosphorylated GS1 peptide and 10 μM ATP (containing 300,000 cpm of ^33P-ATP) were incubated in 25 mM Tris-HCl, pH 7.5, 0.6 mM DTT, 6 mM MgCl2, 0.6 mM EGTA, 0.05 mg/ml BSA buffer for 1 hour at room temperature in the presence of GSK3beta (total reaction volume: 100 microliters). In a second protocol: 4.1 μM of prephosphorylated GS1 peptide and 42 μM ATP (containing 260,000 cpm ^33P-ATP) were incubated in 80 mM Mes-NaOH, pH 6.5, 1 mM Mg acetate, 0.5 mM EGTA, 5 mM 2-mercaptoethanol, 0.02% Tween 20, 10% glycerol buffer for 2 hours at room temperature in the presence of GSK3beta. In a third protocol: 7.5 μM of prephosphorylated GS1 peptide and 10 μM ATP (containing 300,000 cpm of ^33P-ATP) were incubated in 50 mM Hepes, pH 7.2, 1 mM DTT, 1 mM MgCl2, 1 mM EGTA, 0.01% Tween 20 buffer for one hour at room temperature in the presence of GSK3beta (total reaction volume: 100 microliters). In a fourth protocol: 7.5 μM of prephosphorylated GS1 peptide and 10 μM ATP (containing 300,000 cpm of ^33P-ATP) were incubated in 50 mM Hepes, pH 7.2, 1 mM DTT, 1 mM MgCl2, 1 mM EGTA, 0.01% Tween 20 buffer for 90 minutes at room temperature in the presence of commercial GSK3beta (Millipore) (total reaction volume: 100 microliters). Inhibitors were solubilised in DMSO (final solvent concentration in the reaction medium, 1%). The reaction was stopped with 100 microliters of a solution made of 25 g polyphosphoric acid (85% P2O5), 126 ml 85% H3PO4, H2O to 500 ml and then diluted to 1:100 before use. An aliquot of the reaction mixture was then transferred to Whatman P81 cation exchange filters and rinsed with the solution described above. Incorporated ^33P radioactivity was determined by liquid scintillation spectrometry. The phosphorylated GS-1 peptide had the following sequence: NH2-[…](P)EDEE-COOH. (Woodgett, J. R. (1989) Analytical Biochemistry 180, 237-241.

Sequence of GSK3β (P49841 whole entry): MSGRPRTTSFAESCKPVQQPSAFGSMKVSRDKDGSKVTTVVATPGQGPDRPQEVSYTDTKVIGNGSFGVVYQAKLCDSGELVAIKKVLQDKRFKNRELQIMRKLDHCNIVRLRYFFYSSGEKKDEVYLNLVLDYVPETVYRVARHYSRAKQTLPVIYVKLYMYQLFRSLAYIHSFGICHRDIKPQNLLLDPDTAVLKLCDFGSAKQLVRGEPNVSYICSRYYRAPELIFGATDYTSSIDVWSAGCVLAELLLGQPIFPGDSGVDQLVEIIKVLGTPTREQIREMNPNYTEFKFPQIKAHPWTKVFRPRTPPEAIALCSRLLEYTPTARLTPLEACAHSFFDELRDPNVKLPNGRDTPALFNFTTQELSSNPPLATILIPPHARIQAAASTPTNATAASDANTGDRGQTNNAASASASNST

| melting point | IC50 (GSK3β) | Compound |
| --- | --- | --- |
| 232 to 234 °C |  | O=C(NC1CNCCn2c1nc(-c1ccncc1)cc2=O)c1cc(F)cc2c1OCOC2 (racemic) (as salt: HCl) [Compound No. 26, (+/−)-6-Fluoro-4H-benzo[1,3]dioxine-8-carboxylic acid (4-oxo-2-pyridin-4-yl-4,5,6,7,8,9-hexahydro-1,4a,7-triaza-benzocyclohepten-9-yl)-amide] |
| 284 to 286 °C | 73 nM | CCOC(=O)N1CCn2c(nc(-c3ccncn3)cc2=O)C(NC(=O)c2ccc3ncccc3n2)C1 (racemic) [Compound No. 1, (+/−)-9-[([1,5]Naphthyridine-2-carbonyl)-amino]-4-oxo-2-pyrimidin-4-yl-5,6,8,9-tetrahydro-4H-1,4a,7-triaza-benzocycloheptene-7-carboxylic acid ethyl ester] |
|  | 12 nM | O=C(NC1CNCCn2c1nc(-c1ccncc1)cc2=O)c1cc(F)cc2c1OCOC2 (racemic) [Compound No. 26, (+/−)-6-Fluoro-4H-benzo[1,3]dioxine-8-carboxylic acid (4-oxo-2-pyridin-4-yl-4,5,6,7,8,9-hexahydro-1,4a,7-triaza-benzocyclohepten-9-yl)-amide] |
| 284 to 286 °C | 109 nM | CCOC(=O)N1CCn2c(nc(-c3ccncc3)cc2=O)C(NC(=O)c2cccc3c2OCC3)C1 (racemic) [compound 8, (+/−)-9-[(2,3-Dihydro-benzofuran-7-carbonyl)-amino]-4-oxo-2-pyridin-4-yl-5,6,8,9-tetrahydro-4H-1,4-a,7-thaza-benzocycloheptene-7-carboxylic acid ethyl ester] |
| 169 to 171 °C | 47 nM | CN1CCn2c(nc(-c3ccncn3)cc2=O)C(NC(=O)c2cc(Cl)c(N)c3c2OCCO3)C1 (racemic) [compound 22, (+/−)-8-Amino-7-chloro-2,3-dihydro-benzo[1,4]dioxine-5-carboxylic acid (7-methyl-4-oxo-2-pyrimidin-4-yl-4,5,6,7,8,9-hexahydro-1,4a,7-triaza-benzocyclohepten-9-yl)-amide] |

From US8507475B2, “Substituted heteroarylamide diazepinopyrimidone derivatives” (Sanofi, priority 2008, dated 2013)
